Experimental data published in the NIST ThermoML archive (doi:10.1016/j.jct.2009.06.016).
Values joined by “and” are separate entries in the source; they are usually repeats but may differ in a detail not shown here. Equal values may be shown once. ± gives the expanded uncertainty stated by the source.

Assay: xn = mol fraction of the nth substance listed
Conditions: 101 kPa, Liquid, Vibrating tube method

CCCOCC(C)O (configuration not stated) [1-propoxy-2-propanol] + O
mass density
Conditions | 288.15 K | 293.15 K
x1 = 0.001639 | – | 997.77 ± 0.057 kg/m3
x1 = 0.003265 | – | 997.378 ± 0.055 kg/m3
x1 = 0.01049 | – | 996.156 ± 0.054 kg/m3
x1 = 0.01741 | – | 995.295 ± 0.054 kg/m3
x1 = 0.02413 | – | 994.434 ± 0.057 kg/m3
x1 = 0.02492 | – | 994.315 ± 0.057 kg/m3
x1 = 0.03341 | – | 992.599 ± 0.061 kg/m3
x1 = 0.0411 | – | 990.295 ± 0.066 kg/m3
x1 = 0.04904 | – | 987.469 ± 0.07 kg/m3
x1 = 0.05896 | – | 983.811 ± 0.071 kg/m3
x1 = 0.06919 | – | 980.171 ± 0.072 kg/m3
x1 = 0.07722 | – | 977.347 ± 0.073 kg/m3
x1 = 0.08896 | – | 973.523 ± 0.073 kg/m3
x1 = 0.09833 | – | 970.577 ± 0.074 kg/m3
x1 = 0.1083 | – | 967.62 ± 0.074 kg/m3
x1 = 0.1182 | – | 964.864 ± 0.075 kg/m3
x1 = 0.1249 | – | 963.131 ± 0.075 kg/m3
x1 = 0.1283 | 966.142 ± 0.074 kg/m3 | 962.218 ± 0.075 kg/m3
x1 = 0.1365 | 964.14 ± 0.075 kg/m3 | 960.182 ± 0.076 kg/m3
x1 = 0.1475 | 961.573 ± 0.075 kg/m3 | 957.6 ± 0.077 kg/m3
x1 = 0.1677 | 957.197 ± 0.077 kg/m3 | 953.147 ± 0.078 kg/m3
x1 = 0.1955 | 951.825 ± 0.079 kg/m3 | 947.746 ± 0.081 kg/m3
x1 = 0.2281 | 946.219 ± 0.083 kg/m3 | 942.051 ± 0.084 kg/m3
x1 = 0.2743 | 939.47 ± 0.087 kg/m3 | 935.34 ± 0.088 kg/m3
x1 = 0.3208 | 933.429 ± 0.093 kg/m3 | 929.158 ± 0.094 kg/m3
x1 = 0.3483 | 930.247 ± 0.095 kg/m3 | 926.15 ± 0.097 kg/m3
x1 = 0.3738 | 927.69 ± 0.099 kg/m3 | 923.45 ± 0.1 kg/m3
x1 = 0.4214 | 922.877 ± 0.11 kg/m3 | 918.572 ± 0.11 kg/m3
x1 = 0.4787 | 918.2 ± 0.12 kg/m3 | 913.81 ± 0.12 kg/m3
x1 = 0.5257 | 914.413 ± 0.12 kg/m3 | 910.011 ± 0.12 kg/m3
x1 = 0.548 | 912.761 ± 0.13 kg/m3 | 908.503 ± 0.13 kg/m3
x1 = 0.5771 | 910.9 ± 0.13 kg/m3 | 906.52 ± 0.13 kg/m3
x1 = 0.5977 | 909.422 ± 0.14 kg/m3 | –
x1 = 0.6247 | 907.847 ± 0.14 kg/m3 | –
x1 = 0.6264 | 907.647 ± 0.14 kg/m3 | –
x1 = 0.6385 | 906.945 ± 0.14 kg/m3 | –
x1 = 0.672 | 905.017 ± 0.15 kg/m3 | –
x1 = 0.6758 | 904.871 ± 0.15 kg/m3 | –
x1 = 0.6793 | 904.571 ± 0.15 kg/m3 | –
x1 = 0.7192 | 902.407 ± 0.16 kg/m3 | –
x1 = 0.7272 | 901.907 ± 0.16 kg/m3 | –
x1 = 0.7448 | 901.061 ± 0.17 kg/m3 | –
x1 = 0.7589 | 900.364 ± 0.17 kg/m3 | –
x1 = 0.7682 | 899.934 ± 0.17 kg/m3 | –
x1 = 0.7858 | 899.08 ± 0.18 kg/m3 | –
x1 = 0.7981 | 898.495 ± 0.18 kg/m3 | –
x1 = 0.8224 | 897.287 ± 0.19 kg/m3 | –
x1 = 0.8398 | 896.637 ± 0.19 kg/m3 | –
x1 = 0.8588 | 895.641 ± 0.2 kg/m3 | –
x1 = 0.8792 | 894.921 ± 0.2 kg/m3 | –
x1 = 0.8796 | 894.851 ± 0.2 kg/m3 | –
x1 = 0.8993 | 893.936 ± 0.21 kg/m3 | –
x1 = 0.9197 | 893.212 ± 0.21 kg/m3 and 893.204 ± 0.21 kg/m3 | –
x1 = 0.9388 | 892.326 ± 0.22 kg/m3 | –
x1 = 0.9486 | 891.949 ± 0.22 kg/m3 | –
x1 = 0.9609 | 891.451 ± 0.22 kg/m3 | –
x1 = 0.9628 | 891.604 ± 0.22 kg/m3 | –
x1 = 0.9716 | 891.059 ± 0.23 kg/m3 | –
x1 = 0.9798 | 890.77 ± 0.23 kg/m3 | –
x1 = 0.9818 | 890.664 ± 0.23 kg/m3 | –
x1 = 0.9919 | 890.294 ± 0.23 kg/m3 | –
x1 = 1 | 889.963 ± 0.23 kg/m3 | –
